Data from patent US7064122B2, “Pancreatic lipase inhibitor compounds, their synthesis and use” (OSI Pharmaceuticals, Inc., priority 2001, dated 2006).

Tests used:
[1] = biological target: T1, type VI-S porcine pancreatic lipase (Sus scrofa, UniProt P00591); test: Pancreatic lipase assay (pH-stat titration, triolein substrate); assay type: biochemical; parameters: Ymax: unit not given here; conditions: for k / Ymax: 7.0 nM lipase, 700 nM inhibitor, pH 8.0; for k: k fitted for the 12.5 min after inhibitor addition, Y=Ymax*(1-exp(-k*X)); for Ymax: Ymax of the fit Y=Ymax*(1-exp(-k*X)); for inhibition at 0.7 µM: 12.5 min
T1 construct: purchased Sigma type VI-S (catalogue number not given)
T1 sequence (P00591 1-450): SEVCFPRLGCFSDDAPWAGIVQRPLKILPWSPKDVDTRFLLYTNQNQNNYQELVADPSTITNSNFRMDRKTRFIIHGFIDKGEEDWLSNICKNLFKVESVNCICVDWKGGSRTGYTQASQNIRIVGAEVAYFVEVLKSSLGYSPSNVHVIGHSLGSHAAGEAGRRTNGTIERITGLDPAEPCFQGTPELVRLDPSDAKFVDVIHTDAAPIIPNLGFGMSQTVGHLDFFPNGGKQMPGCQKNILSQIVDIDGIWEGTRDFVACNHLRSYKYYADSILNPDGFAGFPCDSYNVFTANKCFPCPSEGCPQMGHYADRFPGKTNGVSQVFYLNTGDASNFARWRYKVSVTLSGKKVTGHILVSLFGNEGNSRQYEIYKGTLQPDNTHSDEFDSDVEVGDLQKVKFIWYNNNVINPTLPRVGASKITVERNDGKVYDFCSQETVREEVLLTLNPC
Experimental: The use of a pancreatic lipase assay has been described in the literature (Hadvary, P. et al. Biochem. J. (1988) 256: 357-361; Hadvary, P. et al. Biochem. J. (1991) 266:2021-2027). Pancreatic lipase activity was measured using a 718 Stat Titrino (Brinkmann) programmed to maintain a pH of 8.0 using 0.1 N NaOH. The substrate mixture (pH 8) contained 1 mM taurochenodeoxycholate (Sigma), 9 mM taurodeoxycholate (Sigma), 0.1 mM cholesterol (Sigma), 1 mM phosphatidylcholine (Sigma), 1.5% BSA, 2 mM Tris base, 100 mM NaCl, 10 mM CaCl2, and 3% triolein (Sigma). The mixture (5 mL) was emulsified via sonication at room temperature, and added to the titration vessel with rapid stirring. The Stat Titrino was turned on and lipase (7.0 nM type VI-S porcine pancreatic lipase (Sigma) dissolved in PBS) was added to the vessel. After 10 min, inhibitor (700 nM dissolved in 100% DMSO) was added and the reaction continued for an additional 12.5 min. The k values were determined for the 12.5 min after the addition of the inhibitor using a one phase exponential association equation, Y=Ymax*(1−exp(−k*X)), k values for lipase alone were 0.0004±0.0001 sec. The k values for compounds disclosed herein are >0.0004±0.0001 sec.

melting point | k [1] | Ymax [1] | inhibition at 0.7 µM [1] [%] | SMILES
48 to 50 °C | 1.050 10-3.s-1 | 0.130 | – | CCCCCCCCNc1nc2sc(C(=O)N(CCCCCCCC)CCCCCCCC)c(C)c2c(=O)o1 [Entry 41, 5-Methyl-2-octylamino-4-oxo-4H-thieno[2,3-d][1,3]oxazine-6-carboxylic acid dioctylamide]
58.5 to 60.2 °C | 0.924 10-3.s-1 | 0.286 | – | CCCCCCCCOC(=O)c1sc2nc(OCCCCCCCC)oc(=O)c2c1C [Entry 9, 5-Methyl-2-octyloxy-4-oxo-4H-thieno[2,3-d][1,3]oxazine-6-carboxylic acid octyl ester]
42 to 45 °C | 1.123 10-3.s-1 | 0.124 | – | CCCCCCCCNc1nc2sc(C(=O)N(CCCCCC)CCCCCC)c(C)c2c(=O)o1 [Entry 42, 5-Methyl-2-octylamino-4-oxo-4H-thieno[2,3-d][1,3]oxazine-6-carboxylic acid dihexylamide]
137.1 to 138 °C | 1.849 10-3.s-1 | – | – | CCCCCCCCCCCCNc1nc2sc(C(=O)NCCCCCCCC)c(C)c2c(=O)o1 [Entry 24, 2-Dodecylamino-5-methyl-4-oxo-4H-thieno[2,3-d][1,3]oxazine-6-carboxylic acid octylamide]
173 to 174.5 °C | 0.723 10-3.s-1 | – | – | CCCCCCCCNc1nc2sc(C(=O)NCC(C)(C)C)c(C)c2c(=O)o1 [Entry 58]
148 to 150 °C | 1.544 10-3.s-1 | – | – | CCCCCCCCNc1nc2sc(C(=O)NCc3cccnc3)c(C)c2c(=O)o1 [Entry 35, 5-Methyl-2-octylamino-4-oxo-4H-thieno[2,3-d][1,3]oxazine-6-carboxylic acid (pyridin-3-ylmethyl)amide]
153 to 154 °C | – | – | 69.5 | CCCCCCCCNc1nc2sc(C(=O)NCCCCc3ccccc3)c(C)c2c(=O)o1 [Entry 79, 5-Methyl-2-octylamino-4-oxo-4H-thieno(2,3-d)(1,3)oxazine-6-carboxylic acid (4-phenyl-butyl)-amide]
139 to 141 °C | – | – | 66.3 | CCCCCCCCNc1nc2sc(C(=O)NCCCc3ccccc3)c(C)c2c(=O)o1 [Entry 80, 5-Methyl-2-octylamino-4-oxo-4H-thieno(2,3-d)(1,3)oxazine-6-carboxylic acid (3-phenyl-propyl)-amide]
36 °C | – | – | 27.9 | CCCCCCCCOc1nc2sc(CCCCCCCC)c(C)c2c(=O)o1 [Entry 87]
89 to 91 °C | 0.247 10-3.s-1 | 0.460 | – | CCCCCCCCNc1nc2sc(CCCCCCC)cc2c(=O)o1 [Entry 61, 6-Heptyl-2-octylamino-thieno[2,3-d][1,3]oxazin-4-one]
90 to 92 °C | 1.253 10-3.s-1 | 0.156 | – | CCCCCCCCNc1nc2sc(C(=O)OC(CCCC)CCCC)c(C)c2c(=O)o1 [Entry 39, 5-Methyl-2-octylamino-4-oxo-4H-thieno[2,3-d][1,3]oxazine-6-carboxylic acid 1-butyl-pentyl ester]
146.3 to 147 °C | 1.709 10-3.s-1 | – | – | CCCCCCCCCCCCCCCCNc1nc2sc(C(=O)NCCCCCCCC)c(C)c2c(=O)o1 [Entry 26, 2-Hexadecylamino-5-methyl-4-oxo-4H-thieno[2,3-d][1,3]oxazine-6-carboxylic acid octylamide]
145 to 145.8 °C | 1.629 10-3.s-1 | – | – | CCCCCCCCCCCCCCNc1nc2sc(C(=O)NCCCCCCCC)c(C)c2c(=O)o1 [Entry 25, 5-Methyl-4-oxo-2-tetradecylamino-4H-thieno[2,3-d][1,3]oxazine-6-carboxylic acid octylamide]
152.5 to 158 °C | 0.777 10-3.s-1 | – | – | CCCCCCCCNc1nc2sc(C(=O)NC)c(C)c2c(=O)o1 [Entry 31, 5-Methyl-2-octylamino-4-oxo-4H-thieno[2,3-d][1,3]oxazine-6-carboxylic acid methylamide]

Continued, compound first:

SMILES | melting point | k [1] | Ymax [1] | inhibition at 0.7 µM [1] [%]
CCCCCCCCOC(=O)c1sc2nc(OC(C)C)oc(=O)c2c1C [Entry 12, 2-iso-Propoxy-5-methyl-4-oxo-4H-thieno[2,3-d][1,3]oxazine-6-carboxylic acid octyl ester] | 47.5 to 48 °C | 0.438 10-3.s-1 | – | –
CCCCCCN(C)c1nc2sc(C(=O)OCc3ccccc3)c(C)c2c(=O)o1 [Entry 57, 2-(Hexyl-methyl-amino)-5-methyl-4-oxo-4H-thieno[2,3-d][1,3]oxazine-6-carboxylic acid benzyl ester] | 86 to 88 °C | 0.070 10-3.s-1 | – | –
CCCCCCCCNc1nc2sc(Cc3ccccc3)cc2c(=O)o1 [Entry 62, 6-Benzyl-2-octylamino-thieno[2,3-d][1,3]oxazin-4-one] | 123 to 124 °C | 0.103 10-3.s-1 | 1.901 | –
CCCCCCCCNc1nc2sc(CCCC)cc2c(=O)o1 [Entry 63, 6-Butyl-2-octylamino-thieno[2,3-d][1,3]oxazin-4-one] | 93 to 94 °C | 0.074 10-3.s-1 | 10.091 | –
CCCCCCCCNc1nc2sc(C(=O)OCc3ccccc3)c(C)c2c(=O)o1 [Entry 16, 5-Methyl-2-octylamino-4-oxo-4H-thieno[2,3-d][1,3]oxazine-6-carboxylic acid benzyl ester] | 153.5 to 154 °C | 1.711 10-3.s-1 | – | –
CCCCCCCCNC(=O)Nc1sc(C(=O)N2CCN(Cc3ccccc3)CC2)c(C)c1C(=O)O [Entry 37, 5-(4-Benzyl-piperazine-1-carbonyl)-4-methyl-2-(3-octyl-ureido)-thiophene-3-carboxylic acid] | 193.5 to 195 °C (dec.) | 0.574 10-3.s-1 | 0.211 | –
CCCCCCCCNc1nc2sc(C(=O)NCc3ccc(OC)c(OC)c3)c(C)c2c(=O)o1 [Entry 66, 5-Methyl-2-octylamino-4-oxo-4H-thieno(2,3-d)(1,3)oxazine-6-carboxylic acid (2-(3,4-dimethoxy-phenyl)-methyl)-amide] | 159 to 163 °C | 1.027 10-3.s-1 | 0.118 | –
CCCCCCCCNc1nc2sc(C(=O)N3CCc4cc(OC)c(OC)cc4C3)c(C)c2c(=O)o1 [Entry 65, 6-(6,7-Dimethoxy-3,4-dihydro-1H-isoquinoline-2-carbonyl)-5-methyl-2-octylamino-thieno(2,3-d)(1,3)oxazin-4-one] | 77 to 80 °C | 0.284 10-3.s-1 | 0.339 | –
CCCCCCCCNc1nc2sc(C(=O)NCc3ccc4c(c3)OCO4)c(C)c2c(=O)o1 [Entry 69, 5-Methyl-2-octylamino-4-oxo-4H-thieno(2,3-d)(1,3)oxazine-6-carboxylic acid (2-benzo(1,3)dioxol-5-yl-methyl)-amide] | 149 to 152 °C | 1.137 10-3.s-1 | 0.112 | –
CCCCCCCCOc1nc2sc(CCCCCCC)c(C)c2c(=O)o1 [Entry 74, 6-Heptyl-5-methyl-2-octyloxy-thieno[2,3-d][1,3]oxazin-4-one] | 29 to 31 °C | 0.422 10-3.s-1 | 0.982 | –
